PMC5120310, “In Silico Exploration for Novel Type-I Inhibitors of Tie-2/TEK: The Performance of Different Selection Strategy in Selecting Virtual Screening Candidates” (Scientific Reports, 2016)
Read-outs that look alike come from different tables or passages of the source.

Target: T1, recombinant human Tie-2 protein (Homo sapiens, UniProt Q02763)
T1 construct: purchased Thermo Fisher Scientific Inc. PV3628
Assay: Z′-Lyte FRET enzymatic activity assay of Tie-2 kinase
Type: biochemical
Conditions: for Inhibition (%) @10 μg/ml / inhibition at 10 µg/mL: 10 μg/mL preliminary screening, Table S1; for inhibition at 5 µg/mL: 5 μg/mL, n ≥ 2, read-out: Kinase Inhibition (%) at 5 μg/mL (± SD); for Tie-2 inhibitory activity in words (active / inactive): VS candidates of Strategy 1, preliminary screening at 10 μg/mL

[1] = Z′-Lyte assay, 100 μM ATP, n ≥ 2 per concentration, read-out: IC50 (half-maximal inhibitory concentration), Tie-2 kinase
[2] = in the dose-response figure, read-out: IC50 (dose-dependent inhibitory effect), Tie-2 kinase (converted)

T1 sequence (Q02763 23-1124): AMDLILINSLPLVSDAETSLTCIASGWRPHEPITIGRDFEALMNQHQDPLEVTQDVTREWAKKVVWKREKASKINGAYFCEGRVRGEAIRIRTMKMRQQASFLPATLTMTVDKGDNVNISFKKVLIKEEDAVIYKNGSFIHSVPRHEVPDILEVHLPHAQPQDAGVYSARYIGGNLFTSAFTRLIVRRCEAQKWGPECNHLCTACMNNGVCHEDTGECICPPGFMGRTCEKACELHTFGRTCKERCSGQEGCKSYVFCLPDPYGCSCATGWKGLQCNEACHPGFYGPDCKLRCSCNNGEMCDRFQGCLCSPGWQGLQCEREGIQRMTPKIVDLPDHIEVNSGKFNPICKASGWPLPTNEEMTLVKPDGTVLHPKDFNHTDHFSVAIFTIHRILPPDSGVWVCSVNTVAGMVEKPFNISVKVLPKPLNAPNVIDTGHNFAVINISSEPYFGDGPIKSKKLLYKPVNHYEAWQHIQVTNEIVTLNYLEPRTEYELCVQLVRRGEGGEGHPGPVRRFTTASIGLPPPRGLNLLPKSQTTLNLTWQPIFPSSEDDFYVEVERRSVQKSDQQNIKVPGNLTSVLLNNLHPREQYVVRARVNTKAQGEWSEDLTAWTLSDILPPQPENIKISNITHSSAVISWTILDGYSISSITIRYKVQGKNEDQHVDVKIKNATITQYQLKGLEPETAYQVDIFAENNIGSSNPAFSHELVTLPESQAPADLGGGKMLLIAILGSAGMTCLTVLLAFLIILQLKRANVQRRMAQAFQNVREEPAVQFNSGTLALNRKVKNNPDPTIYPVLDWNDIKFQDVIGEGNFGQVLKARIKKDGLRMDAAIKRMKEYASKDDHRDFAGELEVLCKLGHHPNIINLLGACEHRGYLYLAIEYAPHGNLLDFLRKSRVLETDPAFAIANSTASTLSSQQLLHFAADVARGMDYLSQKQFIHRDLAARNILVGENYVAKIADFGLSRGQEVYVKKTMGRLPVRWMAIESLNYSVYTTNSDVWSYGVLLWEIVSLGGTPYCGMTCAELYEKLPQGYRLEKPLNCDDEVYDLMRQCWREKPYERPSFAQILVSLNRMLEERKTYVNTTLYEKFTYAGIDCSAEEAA
Description: In order to assess the biological inhibitory activity of the VS compounds, Z’-Lyte enzymatic activity assay based on FRET (Fluorescence Resonance Energy Transfer) technology was developed as described above. […] At first, all the compounds obtained from both filtering strategies were preliminary screened for their ability to inhibit Tie-2 kinase activity at the concentration of 10 μg/mL.
The Tie-2 kinase inhibitor (CAS#: 948557-43-5, purity ≥ 97%) was purchased from Merck Calbiochem (Darmstadt, Germany) and used as a positive control inhibitor in bioassays[40]. […] All the purchased screening compounds were firstly dissolved in dimethyl sulfoxide (DMSO) at a stock concentration of 5 mg/ml. The final working concentration of DMSO is less than 1%.
Compounds were tested for their ability to inhibit Tie-2 kinase activity using Z′-Lyte® kinase assay kit (ser/thr 5 peptide) with NUNC 384-well plate. In the first step, the test compounds and ATP solution were firstly prepared at 4 × desired concentration. The mixture of recombinant human Tie-2 protein and non-phosphorylated peptide at 2 × desired concentration was prepared in kinase reaction buffer A consisting of 50 mM HEPES (pH 7.5), 0.01% BRIJ-35, 10 mM MgCl2, 4 mM MnCl2, 1 mM EGTA and 2 mM DTT. Reactions were then carried out in a solution containing 2.5 μL test compounds, 5 μL Tie-2/Tyr 05 peptide mixture (10 ng Tie-2 and 2 μM Tyr 05 peptide) and 2.5 μL ATP (100 μM). Then, the assay plate was shaken for 30 seconds on a plate shaker, and incubated for 1 hour at room temperature (20~25 °C). After sufficient kinase reactions, 5 μL development reagent A was added to each well, and the plate was incubated for another hour. Finally, 5 μL stop reagent was added to terminate the reactions, and the coumarin and fluorescein emission signals (excitation: 400 nm; emission: 445 and 520 nm, respectively) were measured on a fluorescence plate reader (BioTek Synergy 4).

Cc1c(C(=O)NC(=S)Nc2ccc(-c3nc4ccccc4s3)cc2)oc2ccccc12 [TP-C2-16]
Inhibition (%) @10 μg/ml: 84.1±0.44% | IC50 [1]: 8.83 ± 0.58 µM

CCOc1ccc2c(c1)-c1c(ssc1=S)C(C)(C)N2C(=O)CSc1nc(C)cc(O)n1 [TP-C1-17]
inhibition at 10 µg/mL: 89.5 ± 2.93% | IC50 [1]: 4.45 ± 0.36 µM | IC50 [2]: 4.45 µM

CCc1ccc(C(=O)NC(=S)Nc2ccc(NC(=O)c3ccc(Cl)cc3Cl)cc2)cc1 [TP-C3-55]
inhibition at 5 µg/mL: 60.22 ± 0.55% | IC50 [1]: 3.47 µM

COC(=O)c1ccc(C)c(NC(=O)c2cc(-c3ccccn3)nc3ccc(Br)cc23)c1 [TP-C2-33]
inhibition at 10 µg/mL: 95.2 ± 1.81% | IC50 [1]: 3.31 ± 0.23 µM | IC50 [2]: 3.32 µM

CCCOc1ccc(C(=O)NC(=S)Nc2ccc(NC(=O)c3ccc(C(C)(C)C)cc3)cc2)cc1 [TP-C3-52]
inhibition at 5 µg/mL: 7.88 ± 0.59% | IC50 [1]: 36.7 µM

CC(=O)Oc1ccccc1NC(=O)c1ccc2c(c1)C(=O)N(CC1CCCO1)C2=O (centres unmarked) [TP-C1-34]
Inhibition (%) @10 μg/ml: 6.95±6.26%

CCOc1cc(C2C(C(=O)OCCc3ccccc3)=C(C)NC3=C2C(=O)CCC3)ccc1O (centres unmarked) [TP-C2-4]
Inhibition (%) @10 μg/ml: 69.77±2.75%

Cc1ccc2c(c1)C(Cc1nc3ccccc3c(=O)n1CCc1ccccc1)C(=O)N2 (centres unmarked) [TP-C2-56]
Inhibition (%) @10 μg/ml: 74.86±1.02%

Cc1ccc2nc(-c3ccccn3)cc(C(=O)NC3CCCc4ccccc43)c2c1 (centres unmarked) [TP-C2-37]
Inhibition (%) @10 μg/ml: 80.89±0.31% | IC50 [1]: 10.8 ± 0.83 µM

NC(=O)c1ccccc1NC(=O)CSc1nc(O)c(-c2ccccc2)c(=O)[nH]1 [TP-C2-41]
Inhibition (%) @10 μg/ml: 90.36±1.3% | IC50 [1]: 6.12 ± 0.81 µM

O=C(OCc1ccccc1)c1cn(-c2ccccc2)nc1-c1ccncc1 [TP-C1-37]
Inhibition (%) @10 μg/ml: 25.51±1.18% | IC50 [1]: 36.1 ± 1.33 µM

c1ccc(-c2nnc3n2N=C(c2c[nH]c4ccccc24)CS3)cc1 [TP-C1-50]
Inhibition (%) @10 μg/ml: 61.04±3.33%

CCCCc1ccc(NC(=S)C2=C(NCc3ccc4c(c3)OCO4)CC(C)(C)CC2=O)cc1 [TP-C1-31]
Inhibition (%) @10 μg/ml: 2.9±8.41% | Tie-2 inhibitory activity in words (active / inactive): inactive

COc1ccc(Cl)cc1C(=O)NC(=S)Nc1ccc(NC(=O)c2ccccc2)c(C)c1 [TP-C3-27]
inhibition at 5 µg/mL: 47.9 ± 0.05% | IC50 [1]: 19.8 µM

Cc1ccc(-c2cc(C(=O)OCC(=O)c3ccccc3)c3cccc(C)c3n2)cc1 [TP-C1-13]
Inhibition (%) @10 μg/ml: 28.98±1.34% | Tie-2 inhibitory activity in words (active / inactive): inactive

COc1ccc(OC)c(Nc2nc(-c3cccc(NC(=O)c4ccccc4)c3)cs2)c1 [TP-C2-14]
Inhibition (%) @10 μg/ml: 71.64±2.92%

O=C(c1cc(-c2ccncc2)nc2ccc(Cl)cc12)N1CCN(C(=O)C2CCCO2)CC1 (centres unmarked) [TP-C2-36]
Inhibition (%) @10 μg/ml: 61.48±4.57%

COc1ccccc1C(=O)Nc1ccc(Oc2ccc3c(c2)C(=O)NC3=O)cc1 [TP-C1-51]
Inhibition (%) @10 μg/ml: 54.56±1.99%

CCOc1cc(-c2nc3sc4c(c3c(=O)[nH]2)CCCC4)ccc1OCc1ccccc1F [TP-C1-14]
Inhibition (%) @10 μg/ml: 10.67±4.7%

Cc1ccccc1-c1nc(S(=O)(=O)c2ccc(Cl)cc2)c(NCc2cccnc2)o1 [TP-C1-43]
Inhibition (%) @10 μg/ml: -0.28±1.12%

c1ccc(-c2cc(-c3ccc4c(c3)OCCO4)c(-c3ccccc3)nn2)cc1 [TP-C2-48]
Inhibition (%) @10 μg/ml: 43.96±2.34%

Cc1c(C)n(Cc2ccccc2)c2ccc(C(=O)NNC(=S)NCC3CCCO3)cc12 (centres unmarked) [TP-C1-41]
Inhibition (%) @10 μg/ml: 32.86±3.03%

Cc1ccc2nc(-c3ccc(NC(=S)NC(=O)COc4ccccc4C)cc3)sc2c1 [TP-C2-24]
Inhibition (%) @10 μg/ml: 83.25±0.08% | IC50 [1]: 17.5 ± 1.16 µM

COc1ccc(C(=O)NC(=S)Nc2ccc(NC(=O)c3ccccc3)cc2)cc1[N+](=O)[O-] [TP-C3-15]
inhibition at 5 µg/mL: 35.1 ± 0.63% | IC50 [1]: 13.8 µM | fold decline in activity compared to TP-C2-9 (from IC50 values): ~ 10 fold

O=C(CC1c2ccccc2Oc2ccccc21)Nc1ccccn1 [TP-C1-30]
Inhibition (%) @10 μg/ml: 11.44±0.49%

O=C(Nc1ccc(NC(=S)NC(=O)c2cccc3ccccc23)cc1)c1cccs1 [TP-C2-15]
Inhibition (%) @10 μg/ml: 72.64±14.95%

O=C(CN(c1ccc2c(c1)OCCO2)S(=O)(=O)c1ccccc1)Nc1cccnc1 [TP-C1-38]
Inhibition (%) @10 μg/ml: 12.5±2.86%

COc1ccc(C(CC(=O)c2ccccc2)CC(=O)c2ccccc2)cc1OC [TP-C2-23]
Inhibition (%) @10 μg/ml: 47.13±8.4%

O=C(c1n[nH]c(=O)c2ccccc12)N1CCOC(COc2ccccc2)C1 (centres unmarked) [TP-C2-59]
Inhibition (%) @10 μg/ml: 74.19±1.14%

O=C(O)CC1SC(=NN=Cc2ccc(OC(=O)c3cccc4ccccc34)cc2)NC1=O (racemic) [TP-C2-19]
Inhibition (%) @10 μg/ml: -280.42±23.11%

O=C(CN(Cc1ccc(F)cc1)S(=O)(=O)c1ccc(Cl)cc1)NCc1ccccn1 [TP-C1-27]
Inhibition (%) @10 μg/ml: 4.93±5.56%

Cc1nc(-c2cccnc2)sc1C(=O)NCc1ccccn1 [TP-C2-60]
Inhibition (%) @10 μg/ml: 66.88±8.04%

CC(=O)c1cccc(NC(=O)CSc2nnc(-c3ccccc3)c(=O)[nH]2)c1 [TP-C2-58]
Inhibition (%) @10 μg/ml: 50.65±0.04%

O=C(NC(=S)Nc1ccc(-c2nc3ccccc3o2)c(O)c1)c1cccc(Br)c1 [TP-C2-10]
Inhibition (%) @10 μg/ml: 46.26±3.21%

CCCOc1ccc(N2C(=O)CC(N(CCc3ccc(OC)cc3)C(=O)c3cccc(F)c3)C2=O)cc1 (centres unmarked) [TP-C2-5]
Inhibition (%) @10 μg/ml: 83.65±2.57% | IC50 [1]: 13.8 ± 1.02 µM

O=C(CSc1nnc(-c2cccnc2)n1-c1ccccc1)c1ccc(F)cc1 [TP-C1-28]
Inhibition (%) @10 μg/ml: 71.3±0.7% | IC50 [1]: 43.6 ± 2.32 µM

Cc1ccc(C(=O)CSc2nc3ccccc3c(=O)n2N)o1 [TP-C2-43]
Inhibition (%) @10 μg/ml: 55.24±1.85%

Cc1cccc(C(=O)Nc2ccc(-c3cc4ccccc4oc3=O)cc2)c1 [TP-C1-12]
Inhibition (%) @10 μg/ml: 3.6±13.1%

CC1(C)CC(=O)C(C(=S)Nc2ccccc2)=C(NCc2ccc3c(c2)OCO3)C1 [TP-C2-13]
Inhibition (%) @10 μg/ml: 84.95±3.24% | IC50 [1]: 6.78 ± 0.36 µM

CC(=O)Nc1cccc(NC(=O)c2cc(-c3ccncc3)nc3ccc(Br)cc23)c1 [TP-C2-39]
Inhibition (%) @10 μg/ml: 75.1±0.83%

CCc1ccc(C(=O)NC(=S)Nc2ccc(NC(=O)c3cccc(Cl)c3)cc2)cc1 [TP-C3-43]
inhibition at 5 µg/mL: 77.74 ± 0.42% | IC50 [1]: 1.64 µM

COc1cc(C=NN=C2SC(CC(=O)O)C(=O)N2c2ccc(O)cc2)ccc1O (centres unmarked) [TP-C1-11]
Inhibition (%) @10 μg/ml: 37.56±1.85%

COc1ccc(-c2cc(-c3ccccc3)c(C#N)c(S(=O)(=O)Cc3ccccc3)n2)cc1 [TP-C1-35]
Inhibition (%) @10 μg/ml: 69.07±3.54%

Cc1cccc(C(=O)Nc2ccc(NC(=S)NC(=O)c3ccccc3Cl)cc2)c1 [TP-C3-45]
inhibition at 5 µg/mL: 49.3 ± 0.95% | IC50 [1]: 2.41 µM

Cc1cc(NC(=S)NC(=O)c2ccccc2C)ccc1NC(=O)c1ccccc1 [TP-C2-7]
Inhibition (%) @10 μg/ml: 54.53±0.58%

CN(CCc1ccccn1)S(=O)(=O)c1ccc2c3c(cccc13)C(=O)N2 [TP-C2-25]
Inhibition (%) @10 μg/ml: -113.04±17.27%

CCOc1ccc(NC(=O)C(C)Sc2nc3ccccc3c(=O)n2-c2cccc(C)c2)cc1 (racemic) [TP-C1-36]
Inhibition (%) @10 μg/ml: 3.87±1.8%

CCN1C(=O)NC(c2ccc(Cl)cc2)C(C(=O)OCCc2ccccc2)=C1C (racemic) [TP-C2-3]
Inhibition (%) @10 μg/ml: 56.11±13.15%

Cc1cc(NC(=S)NC(=O)c2ccc(C)c([N+](=O)[O-])c2)ccc1NC(=O)c1ccccc1 [TP-C3-26]
inhibition at 5 µg/mL: 23.11 ± 0.13% | IC50 [1]: 48.6 µM

O=C(COc1ccc(S(=O)(=O)N2CCc3ccccc32)cc1)NCc1cccnc1 [TP-C2-52]
Inhibition (%) @10 μg/ml: 64.42±0.23%

O=C(NC(=S)Nc1ccc(NC(=O)c2ccc(Cl)cc2Cl)cc1)c1ccccc1 [TP-C3-1]
inhibition at 5 µg/mL: 63 ± 0.86% | IC50 [1]: 1.85 µM

COc1ccc(C(=O)NC(=S)Nc2ccc(NC(=O)c3cccc(C)c3)cc2)cc1OC [TP-C2-9]
inhibition at 10 µg/mL: 81.6 ± 2.85% | IC50 [1]: 1.86 ± 0.18 µM | IC50 [2]: 1.87 µM

Cc1cc(NC(=S)NC(=O)c2ccc3c(c2)OCO3)ccc1NC(=O)c1ccccc1 [TP-C2-30]
Inhibition (%) @10 μg/ml: 81.26±3.96% | IC50 [1]: 2.05 ± 0.11 µM

O=c1[nH]c(-c2ccc(OCc3ccccc3F)cc2)nc2ccccc12 [TP-C1-40]
Inhibition (%) @10 μg/ml: 2.81±1.73%

CCCOc1cccc(C(=O)NC(=S)Nc2ccc(NC(=O)c3ccccc3)cc2)c1 [TP-C3-14]
inhibition at 5 µg/mL: 43 ± 1.08% | IC50 [1]: 22.7 µM

CC1=C(C(=O)Nc2ccc(C)cc2C)C(c2ccc(O)cc2)NC(=S)N1 (centres unmarked) [TP-C1-21]
Inhibition (%) @10 μg/ml: 58.96±3.25%

Cc1ccccc1COc1ccc(-c2nnn(CC(=O)Nc3ccc4c(c3)OCO4)n2)cc1 [TP-C2-28]
Inhibition (%) @10 μg/ml: 40.32±14.48%

O=C(c1cc(-c2ccncc2)nc2ccc(Br)cc12)N1CCN(Cc2ccc3c(c2)OCO3)CC1 [TP-C1-45]
Inhibition (%) @10 μg/ml: 63.88±1.45%

CCc1ccc2oc(-c3ccc(NC(=S)NC(=O)c4cc5ccccc5o4)cc3)nc2c1 [TP-C1-15]
Inhibition (%) @10 μg/ml: -0.66±5.93%

Cc1ccc2nc(-c3ccc(NC(=S)NC(=O)c4oc5ccccc5c4C)cc3)oc2c1 [TP-C2-12]
Inhibition (%) @10 μg/ml: 85.54±0.14% | IC50 [1]: 14.6 ± 1.21 µM

Cc1cc(S(=O)(=O)Nc2ccc(F)cc2)ccc1OCC(=O)NCc1cccnc1 [TP-C2-53]
Inhibition (%) @10 μg/ml: 77.43±0.89%

O=C(NN=Cc1ccc(N2N=C(c3ccccc3)CC2c2ccccc2)cc1)c1ccncc1 (racemic) [TP-C1-6]
Inhibition (%) @10 μg/ml: 16.08±16.2% | Tie-2 inhibitory activity in words (active / inactive): inactive

COc1ccc(-c2nnc(SC(CC(=O)NCc3ccco3)c3ccc(C)cc3)[nH]2)cc1 (centres unmarked) [TP-C2-45]
Inhibition (%) @10 μg/ml: 65.92±4.36%

CCOc1ccc(CN(CCc2ccc3c(c2)OCO3)Cc2ccc(C)cc2)cc1 [TP-C1-9]
Inhibition (%) @10 μg/ml: 17.49±0.65%

O=C(NCCNC(=O)c1cc2ccccc2cc1O)c1cc2ccccc2cc1O [TP-C1-7]
Inhibition (%) @10 μg/ml: 9.84±11.04%

Cc1ccccc1C(=O)NC(=S)Nc1ccc(NC(=O)c2cc3ccccc3o2)cc1 [TP-C2-47]
Inhibition (%) @10 μg/ml: 67.14±5.68%

O=C(Nc1ccc2c(c1)OCCO2)C1CC(=O)N(CCc2c[nH]c3ccc(F)cc23)C1 (centres unmarked) [TP-C2-57]
Inhibition (%) @10 μg/ml: 48.64±1.91%

COc1cc(NC(=S)NC(=O)c2ccc(C)cc2C)ccc1NC(=O)c1ccccc1Cl [TP-C3-21]
inhibition at 5 µg/mL: 71.19 ± 0.29% | IC50 [1]: 2.74 µM
